Reference: US12310975B2, “Modulators of BCL6 proteolysis and associated methods of use” (Arvinas Operations, Inc., priority 2019, dated 2025)

Each compound was assayed against T1, BCL6 (Homo sapiens (Human), UniProt P41182) (assay: BCL6 TR-FRET assay (BCL6-Avitag-Biotin / BCoR-Cy5 peptide)). Settings: not given.
Assay type: binding
Experimental: Protein Synthesis. BCL6 protein was expressed by transforming Invitrogen One Shot cells with GS63525 pET24a-His-SUMO-TEV-BCLm-Avitag plasmid following manufacturer's instructions. In addition, biotin at a final concentration of 50 μM, and IPTG at a final concentration of 1 mM was added to the culture and incubated at room temperature shaking overnight.
Assay buffer A: 50 mM HEPES pH 7.5, 125 mM NaCl, 0.01% TritonX.
Assay buffer B (made fresh): buffer A+1 mM Glutathione (or 0.5 mM DTT).
Assay buffer C (made fresh): buffer B+0.03% BSA.
Black Proxy plates, 96 well.
15 μl final reaction volumes (BCoR-Cy5 100 nM, SA-Eu 2 nM, BCL6-avitag 2 nM).
[…] BCL6-Avitag-Biotin stock: made fresh by adding 2 μl of BCL6-Avitag-Biotin to 31.5 ml Buffer C.
1 mM BCoR-Cy5 peptide (LifeTein) stock in Dimethylformamide (DMF).
300 nM BCoR-Cy5 working stock: made fresh by adding 4.5 μl of the 1 mM BCoR-Cy5 peptide stock to 15 ml Buffer B.
10 μM Eu-Streptavidin (Lance Eu-W1024 Streptavidin, PerkinElmer) stock solution.
6 nM Eu-Streptavidin working stock: made fresh by adding 9 μl Eu-Streptavidin stock solution to 15 ml Buffer A.
Compounds were diluted to 10 mM. Twenty microliters of DMSO was aliquoted to each well of the microtiter plates. From the 10 mM compound stock, 8.7 ul was aliquoted to the 20 ul DMSO and 3-fold serial dilutions (12 pt 3-0.01 uM tritration plate, 96 well, 100% DMSO) performed. Five ul from the titration plate wells was aliquoted to 45 ul Buff C (Intermediate dilution plates, 10% DMSO).
Spot 1.5 μl compound titrations to 384-well plates in duplicate, and spot 3.5 μl [8.5 nM] BCL6-bio protein to each well. The plate was mix briefly, centrifuged, and incubated for 30 minutes at room temperature.
Mix 14 mls of BCoR-Cy5 [300 nM] and 14 mls [6 nM] Eu-Streptavidin. Spot 10 μl BCoR-Cy5/SA-Eu (1:1) mix to each well. The plates were incubated for 2 hours and then read on an Envision plate reader.

Row | EC50 | SMILES
1 | > 100 nM | CNC(=O)COc1cc2cc(Nc3nc(N4CCC[C@H](COc5cccc6c5C(=O)N(C5CCC(=O)NC5=O)C6=O)C4)ncc3Cl)ccc2n(C)c1=O (stereo partly drawn) [compound 192, 2-((6-((5-chloro-2-((3S)-3-(((2-(2,6-dioxopiperidin-3-yl)-1,3-dioxoisoindolin-4-yl)oxy)methyl)piperidin-1-yl)pyrimidin-4-yl)amino)-1-methyl-2-oxo-1,2-dihydroquinolin-3-yl)oxy)-N-methylacetamide]
2 | > 100 nM | Cn1c(=O)c(OC2COC2)cc2cc(Nc3nc(N4CCC(CN5CCN(c6ccc7c(c6)C(=O)N(C6CCC(=O)NC6=O)C7=O)CC5)CC4)ncc3Cl)ccc21 (centres unmarked) [compound 223, 5-(4-((1-(5-chloro-4-((1-methyl-3-(oxetan-3-yloxy)-2-oxo-1,2-dihydroquinolin-6-yl)amino)pyrimidin-2-yl)piperidin-4-yl)methyl)piperazin-1-yl)-2-(2,6-dioxopiperidin-3-yl)isoindoline-1,3-dione]

Same assay, conditions: class symbols A-D; read-out: IC50 (nM)***

Row | IC50 | SMILES
3 | 10 to 50 nM | CNC(=O)COc1cc2cc(Nc3nc(N4CCC(OCCOCCOCCOCCCOc5ccc6c(c5)CN(C5CCC(=O)NC5=O)C6=O)CC4)ncc3Cl)ccc2n(C)c1=O (centres unmarked) [compound 168, 2-((6-((5-chloro-2-(4-(2-(2-(2-(3-((2-(2,6-dioxopiperidin-3-yl)-1-oxoisoindolin-5-yl)oxy)propoxy)ethoxy)ethoxy)ethoxy)piperidin-1-yl)pyrimidin-4-yl)amino)-1-methyl-2-oxo-1,2-dihydroquinolin-3-yl)oxy)-N-methylacetamide]

Same assay, conditions: read-out: IC50

Row | SMILES | IC50
4 | CNC(=O)COc1cc2cc(Nc3nc(N4CCC(O[C@@H]5C[C@H](Oc6cccc7c6C(=O)N(C6CCC(=O)NC6=O)C7=O)CN(C)C5)CC4)ncc3Cl)ccc2n(C(C)C)c1=O (stereo partly drawn) [compound 487, 2-[(6-{[5-chloro-2-(4-{[(3R,5S)-5-{[2-(2,6-dioxopiperidin-3-yl)-1,3-dioxo-2,3-dihydro-1H-isoindol-4-yl]oxy}-1-methylpiperidin-3-yl]oxy}piperidin-1-yl)pyrimidin-4-yl]amino}-2-oxo-1-(propan-2-yl)-1,2-dihydroquinolin-3-yl)oxy]-N-methylacetamide] | ≥ 100 nM
5 | CNC(=O)COc1cc2cc(Nc3nc(N4CCC(N5CCC6(CCN(c7cccc8c7C(=O)N(C7CCC(=O)NC7=O)C8=O)C6)CC5)CC4)ncc3Cl)ccc2n(C(C)C)c1=O (centres unmarked) [compound 528, 2-[(6-{[5-chloro-2-(4-{2-[2-(2,6-dioxopiperidin-3-yl)-1,3-dioxo-2,3-dihydro-1H-isoindol-4-yl]-2,8-diazaspiro[4.5]decan-8-yl}piperidin-1-yl)pyrimidin-4-yl]amino}-2-oxo-1-(propan-2-yl)-1,2-dihydroquinolin-3-yl)oxy]-N-methylacetamide] | 10 to 50 nM
6 | CNC(=O)COc1cc2cc(Nc3nc(N4CCC(O[C@@H]5C[C@@H](Oc6cccc7c6C(=O)N(C6CCC(=O)NC6=O)C7=O)CN(C)C5)CC4)ncc3Cl)ccc2n(C(C)C)c1=O (stereo partly drawn) [compound 479, 2-[(6-{[5-chloro-2-(4-{[(3R,5R)-5-{[2-(2,6-dioxopiperidin-3-yl)-1,3-dioxo-2,3-dihydro-1H-isoindol-4-yl]oxy}-1-methylpiperidin-3-yl]oxy}piperidin-1-yl)pyrimidin-4-yl]amino}-2-oxo-1-(propan-2-yl)-1,2-dihydroquinolin-3-yl)oxy]-N-methylacetamide] | ≥ 100 nM
7 | CNC(=O)COc1cc2cc(Nc3nc(N4CCC(O[C@@H]5C[C@@H](COc6cccc7c6C(=O)N(C6CCC(=O)NC6=O)C7=O)N(C)C5)CC4)ncc3Cl)ccc2n(C(C)C)c1=O (stereo partly drawn) [compound 478, 2-[(6-{[5-chloro-2-(4-{[(3R,5S)-5-({[2-(2,6-dioxopiperidin-3-yl)-1,3-dioxo-2,3-dihydro-1H-isoindol-4-yl]oxy}methyl)-1-methylpyrrolidin-3-yl]oxy}piperidin-1-yl)pyrimidin-4-yl]amino}-2-oxo-1-(propan-2-yl)-1,2-dihydroquinolin-3-yl)oxy]-N-methylacetamide] | ≥ 100 nM
8 | CNC(=O)COc1cc2cc(Nc3nc(N4CCC(CN5CCCN(c6cccc(N7CCC(=O)NC7=O)c6OC)CC5)CC4)ncc3Cl)ccc2n(C(C)C)c1=O [compound 535, 2-{[6-({5-chloro-2-[4-({4-[3-(2,4-dioxo-1,3-diazinan-1-yl)-2-methoxyphenyl]-1,4-diazepan-1-yl}methyl)piperidin-1-yl]pyrimidin-4-yl}amino)-2-oxo-1-(propan-2-yl)-1,2-dihydroquinolin-3-yl]oxy}-N-methylacetamide] | 10 to 50 nM
9 | CNC(=O)COc1cc2cc(Nc3nc(N4CCC(CN5CCC6(CC5)CCN(c5ccc(N7CCC(=O)NC7=O)c(OC)c5)C6)CC4)ncc3Cl)ccc2n(C(C)C)c1=O [compound 509, 2-{[6-({5-chloro-2-[4-({2-[4-(2,4-dioxo-1,3-diazinan-1-yl)-3-methoxyphenyl]-2,8-diazaspiro[4.5]decan-8-yl}methyl)piperidin-1-yl]pyrimidin-4-yl}amino)-2-oxo-1-(propan-2-yl)-1,2-dihydroquinolin-3-yl]oxy}-N-methylacetamide] | ≥ 100 nM

Results, then the compound that gave them:

Row | IC50 | SMILES
10 | ≥ 100 nM | CNC(=O)COc1cc2cc(Nc3nc(N4CCC(O[C@@H]5C[C@H](COc6ccc7c(c6)C(=O)N(C6CCC(=O)NC6=O)C7=O)N(C)C5)CC4)ncc3Cl)ccc2n(C(C)C)c1=O (stereo partly drawn) [compound 460, 2-[(6-{[5-chloro-2-(4-{[(3R,5R)-5-({[2-(2,6-dioxopiperidin-3-yl)-1,3-dioxo-2,3-dihydro-1H-isoindol-5-yl]oxy}methyl)-1-methylpyrrolidin-3-yl]oxy}piperidin-1-yl)pyrimidin-4-yl]amino}-2-oxo-1-(propan-2-yl)-1,2-dihydroquinolin-3-yl)oxy]-N-methylacetamide]
11 | ≥ 100 nM | CNC(=O)COc1cc2cc(Nc3nc(N4CCC(O[C@H]5C[C@H](Oc6ccc7c(c6)C(=O)N(C6CCC(=O)NC6=O)C7=O)CN(C)C5)CC4)ncc3Cl)ccc2n(C(C)C)c1=O (stereo partly drawn) [compound 459, 2-[(6-{[5-chloro-2-(4-{[(3S,5S)-5-{[2-(2,6-dioxopiperidin-3-yl)-1,3-dioxo-2,3-dihydro-1H-isoindol-5-yl]oxy}-1-methylpiperidin-3-yl]oxy}piperidin-1-yl)pyrimidin-4-yl]amino}-2-oxo-1-(propan-2-yl)-1,2-dihydroquinolin-3-yl)oxy]-N-methylacetamide]
12 | 10 to 50 nM | CNC(=O)COc1cc2cc(Nc3nc(N4CCC(CN5CCCN(c6ccc(OC)c(N7CCC(=O)NC7=O)c6)CC5)CC4)ncc3Cl)ccc2n(C(C)C)c1=O [compound 530, 2-{[6-({5-chloro-2-[4-({4-[3-(2,4-dioxo-1,3-diazinan-1-yl)-4-methoxyphenyl]-1,4-diazepan-1-yl}methyl)piperidin-1-yl]pyrimidin-4-yl}amino)-2-oxo-1-(propan-2-yl)-1,2-dihydroquinolin-3-yl]oxy}-N-methylacetamide]
13 | ≥ 100 nM | CNC(=O)COc1cc2cc(Nc3nc(N4CCC(O[C@@H]5C[C@@H](Oc6ccc7c(c6)C(=O)N(C6CCC(=O)NC6=O)C7=O)CN(C)C5)CC4)ncc3Cl)ccc2n(C(C)C)c1=O (stereo partly drawn) [compound 464, 2-[(6-{[5-chloro-2-(4-{[(3R,5R)-5-{[2-(2,6-dioxopiperidin-3-yl)-1,3-dioxo-2,3-dihydro-1H-isoindol-5-yl]oxy}-1-methylpiperidin-3-yl]oxy}piperidin-1-yl)pyrimidin-4-yl]amino}-2-oxo-1-(propan-2-yl)-1,2-dihydroquinolin-3-yl)oxy]-N-methylacetamide]
14 | ≥ 100 nM | CNC(=O)COc1cc2cc(Nc3nc(N4CCC(O[C@H]5C[C@@H](Oc6ccc7c(c6)C(=O)N(C6CCC(=O)NC6=O)C7=O)CN(C)C5)CC4)ncc3Cl)ccc2n(C(C)C)c1=O (stereo partly drawn) [compound 457, 2-[(6-{[5-chloro-2-(4-{[(3S,5R)-5-{[2-(2,6-dioxopiperidin-3-yl)-1,3-dioxo-2,3-dihydro-1H-isoindol-5-yl]oxy}-1-methylpiperidin-3-yl]oxy}piperidin-1-yl)pyrimidin-4-yl]amino}-2-oxo-1-(propan-2-yl)-1,2-dihydroquinolin-3-yl)oxy]-N-methylacetamide]
15 | ≥ 100 nM | CNC(=O)COc1cc2cc(Nc3nc(N4CCC(O[C@H]5C[C@@H](COc6ccc7c(c6)C(=O)N(C6CCC(=O)NC6=O)C7=O)N(C)C5)CC4)ncc3Cl)ccc2n(C(C)C)c1=O (stereo partly drawn) [compound 456, 2-[(6-{[5-chloro-2-(4-{[(3S,5S)-5-({[2-(2,6-dioxopiperidin-3-yl)-1,3-dioxo-2,3-dihydro-1H-isoindol-5-yl]oxy}methyl)-1-methylpyrrolidin-3-yl]oxy}piperidin-1-yl)pyrimidin-4-yl]amino}-2-oxo-1-(propan-2-yl)-1,2-dihydroquinolin-3-yl)oxy]-N-methylacetamide]

These compounds were tested against T1, BCL6 (assay: Immunofluorescence high content imaging of BCL6 degradation in T47D cells). Settings: T47D, maximum, class symbols A-C.
Assay type: cell-based
Procedure, shortened: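 Following a 3-day incubation with serially diluted bifunctional compounds (final top 0.1 or 1 μM), T47D cells were PFA-fixed and immunostained for BCL6. Nuclear BCL6 signal was captured on a high-content imager.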

Row | Dmax | SMILES
16 | 50 to 70% | CNC(=O)COc1cc2cc(Nc3nc(N4CCC(OCCOCCOCCOCCCOc5ccc6c(c5)CN(C5CCC(=O)NC5=O)C6=O)CC4)ncc3Cl)ccc2n(C)c1=O (centres unmarked) [compound 168, 2-((6-((5-chloro-2-(4-(2-(2-(2-(3-((2-(2,6-dioxopiperidin-3-yl)-1-oxoisoindolin-5-yl)oxy)propoxy)ethoxy)ethoxy)ethoxy)piperidin-1-yl)pyrimidin-4-yl)amino)-1-methyl-2-oxo-1,2-dihydroquinolin-3-yl)oxy)-N-methylacetamide]

Same assay, conditions: class symbols A-D, read-out: EC50 (nM)*

Row | DC50 | SMILES
17 | > 100 nM | CNC(=O)COc1cc2cc(Nc3nc(N4CCC(OCCOCCOCCOCCCOc5ccc6c(c5)CN(C5CCC(=O)NC5=O)C6=O)CC4)ncc3Cl)ccc2n(C)c1=O (centres unmarked) [compound 168, 2-((6-((5-chloro-2-(4-(2-(2-(2-(3-((2-(2,6-dioxopiperidin-3-yl)-1-oxoisoindolin-5-yl)oxy)propoxy)ethoxy)ethoxy)ethoxy)piperidin-1-yl)pyrimidin-4-yl)amino)-1-methyl-2-oxo-1,2-dihydroquinolin-3-yl)oxy)-N-methylacetamide]
